Measurements as given in ChEMBL document CHEMBL1201862, “PubChem BioAssay data set” (2004).
Active and inactive are the calls of the source.

What was measured:
H9c2 = test: cells; format: functional, cell-based; conditions: Rattus norvegicus, H9c2, Myocardium;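 further: confirmatory concentration-response retest of ultra-high-throughput screening hits for modulation of myocardial damage; cell death induced by hydrogen peroxide oxidative stress; compound pretreatment for 60 min then peroxide exposure for 2 h; potency is for protecting the cells against peroxide damage rather than for killing them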
[1] = molecular target: T1, Rac GTPase-activating protein 1 (Homo sapiens, UniProt Q9H0H5); test: blockers of MgcRacGAP-driven Rac1 GTP hydrolysis – biochemical, ADP Hunter fluorescence, primary and confirmatory, confirmation (AID 624330); format: functional
T1 sequence (Q9H0H5 whole entry): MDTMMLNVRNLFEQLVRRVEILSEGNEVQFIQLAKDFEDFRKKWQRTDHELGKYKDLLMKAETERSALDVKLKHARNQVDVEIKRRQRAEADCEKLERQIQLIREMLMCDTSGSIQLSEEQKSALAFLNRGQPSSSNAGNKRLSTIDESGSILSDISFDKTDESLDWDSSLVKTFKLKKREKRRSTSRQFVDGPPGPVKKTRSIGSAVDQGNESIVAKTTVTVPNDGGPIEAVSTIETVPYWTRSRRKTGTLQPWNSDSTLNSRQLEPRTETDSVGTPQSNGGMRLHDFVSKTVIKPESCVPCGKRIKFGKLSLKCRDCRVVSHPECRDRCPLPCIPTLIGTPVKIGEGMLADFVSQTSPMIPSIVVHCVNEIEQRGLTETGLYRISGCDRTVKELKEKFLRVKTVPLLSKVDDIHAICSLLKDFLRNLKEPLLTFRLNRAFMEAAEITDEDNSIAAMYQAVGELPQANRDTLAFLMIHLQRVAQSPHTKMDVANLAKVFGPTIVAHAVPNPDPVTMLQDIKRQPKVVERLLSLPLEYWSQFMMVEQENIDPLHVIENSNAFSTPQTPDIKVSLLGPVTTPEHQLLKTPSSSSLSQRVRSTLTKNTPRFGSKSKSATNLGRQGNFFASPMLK

[2] = non-specific 3'UTR reporter inhibition in Clone20-Shn3RL – cell-based, Renilla luciferase, cherry-picked, counter-screen for Shn3 inhibitor project, dose response (AID 624133); format: functional
[3] = reduction of Shn3 3'UTR-driven luciferase in osteoblasts – cell-based, Clone20 osteoblasts, firefly luciferase, cherry-picked, dose response (AID 624132); format: functional;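 further: firefly luciferase luminescence from reporter carrying the Shn3 3'UTR in osteoblasts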
INS1 = test: INS-1E survival protection against cytokine death – cell-based, luminescence, retest, dose response (AID 449756); format: functional; conditions: Rattus norvegicus;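 further: cell death triggered by IL-1 beta plus TNF-alpha plus IFN-gamma mixture; protective hits raise ATP signal compared with cytokine alone wells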
H4 = test: Luminescence Cell-Based Dose Response HTS to Identify Activators of 5'UTR Stem-Loop Driven Prion Protein mRNA Translation in H4 Neuroglioblastoma Cells. [Related pubchem assays: 1829 (Project Summary), 1814 (Primary HTS)]; format: functional; conditions: Homo sapiens
[4] = Luminescence Cell-Based Dose Confirmation HTS to Identify Activators of 5'UTR Stem-Loop Driven Alpha-Synuclein mRNA Translation in H4 Neuroglioblastoma Cells. [Related pubchem assays: 1829 (Project Summary), 1814 (Primary HTS)]; format: functional
[5] = Luminescence Cell-Based Dose Response HTS to Identify Activators of Luciferase Translation or Activity in H4 […] Cells. [Related pubchem assays: 1829 (Project Summary), 1814 (Primary HTS)]; format: functional
Paired box protein Pax-8 = Paired box protein Pax-8 (Homo sapiens, UniProt Q06710); test: PAX8 transcriptional activity inhibition in RMG-I – RMG-I cells, luciferase, cherry-pick, dose response (AID 687027); format: functional, cell-based;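 further: luciferase reporter driven by Pax8 target thyroperoxidase promoter measured by SteadyGlo luminescence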
Paired box protein Pax-8, sequence (Q06710 whole entry): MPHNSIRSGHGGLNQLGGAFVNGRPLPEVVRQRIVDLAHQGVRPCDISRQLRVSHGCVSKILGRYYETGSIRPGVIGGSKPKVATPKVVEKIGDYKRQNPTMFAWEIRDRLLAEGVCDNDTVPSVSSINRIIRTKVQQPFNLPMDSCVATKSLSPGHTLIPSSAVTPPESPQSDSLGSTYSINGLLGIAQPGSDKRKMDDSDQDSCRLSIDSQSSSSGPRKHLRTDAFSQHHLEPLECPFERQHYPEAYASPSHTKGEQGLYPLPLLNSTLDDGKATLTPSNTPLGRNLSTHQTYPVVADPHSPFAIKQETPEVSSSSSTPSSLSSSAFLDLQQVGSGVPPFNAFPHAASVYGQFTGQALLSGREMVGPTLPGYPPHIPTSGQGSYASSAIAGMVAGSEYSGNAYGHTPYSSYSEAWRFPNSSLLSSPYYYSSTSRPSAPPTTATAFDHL

[6] = viability of uninfected HEp-2 cells – cell-based, HTS, cytotoxicity control for RSV inhibitor project, dose response (AID 2410); format: functional; conditions: human respiratory syncytial virus
[7] = NIH3T3 cell viability loss – ATP luminescence, mouse fibroblasts, counter-screen, dose response (AID 2010); format: functional, cell-based;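 further: cells exposed to compound for about 90 hours before reading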
[8] = molecular target: T2, RNA-binding protein pos-1 (Caenorhabditis elegans, UniProt G5EF15); test: disruptors of C. elegans POS-1 RNA interaction – biochemical, fluorescence polarization, dose response (AID 1964);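 further: purified POS-1 fused to maltose binding protein made in E. coli; potency of compounds blocking POS-1 binding to fluorescent RNA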
T2 sequence (G5EF15 whole entry): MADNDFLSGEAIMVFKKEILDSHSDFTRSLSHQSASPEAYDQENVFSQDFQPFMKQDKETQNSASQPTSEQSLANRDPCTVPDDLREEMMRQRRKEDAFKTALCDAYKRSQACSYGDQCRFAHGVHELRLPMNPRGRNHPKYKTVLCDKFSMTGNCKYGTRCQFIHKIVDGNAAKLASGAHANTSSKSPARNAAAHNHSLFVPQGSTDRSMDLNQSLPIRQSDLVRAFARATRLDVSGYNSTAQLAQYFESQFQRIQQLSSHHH

[9] = Trypanosoma cruzi growth suppression in host cells – NIH3T3 host cells, beta-gal luminescence, confirmation (AID 2044); format: functional, cell-based;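 further: intracellular parasites grown in NIH/3T3 mouse fibroblasts as host cells; luminescent beta-galactosidase reporter signal from transgenic T. cruzi replicating inside host cells; inhibitors lower the luminescence signal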
[10] = molecular target: T3, Zinc finger protein mex-5 (Caenorhabditis elegans, UniProt Q9XUB2); test: potency of MEX-5 RNA-binding blockers – biochemical, C. elegans, fluorescence polarization, dose response (AID 1960)
T3 sequence (Q9XUB2 whole entry): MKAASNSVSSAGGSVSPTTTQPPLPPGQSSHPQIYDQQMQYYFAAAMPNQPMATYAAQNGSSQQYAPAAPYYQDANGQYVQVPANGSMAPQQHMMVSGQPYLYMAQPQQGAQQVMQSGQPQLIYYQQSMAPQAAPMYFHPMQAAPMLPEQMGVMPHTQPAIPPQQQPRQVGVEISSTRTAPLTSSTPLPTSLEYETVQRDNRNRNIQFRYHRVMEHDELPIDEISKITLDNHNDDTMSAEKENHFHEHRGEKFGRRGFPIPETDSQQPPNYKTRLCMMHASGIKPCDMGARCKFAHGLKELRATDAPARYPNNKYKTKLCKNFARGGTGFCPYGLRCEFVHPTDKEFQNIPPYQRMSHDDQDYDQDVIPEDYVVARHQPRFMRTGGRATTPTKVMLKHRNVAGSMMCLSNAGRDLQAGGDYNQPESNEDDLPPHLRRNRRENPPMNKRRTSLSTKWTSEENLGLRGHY

Cytochrome P450 2C19 = Cytochrome P450 2C19 (Homo sapiens, UniProt P33261); test: Cytochrome panel assay with activity outcomes. Panel member name: p450-cyp2c19 Compounds with AC50 equal or less than 10 uM are considered active; format: functional; conditions: read-out: AC50
Cytochrome P450 2C19, sequence (P33261 whole entry): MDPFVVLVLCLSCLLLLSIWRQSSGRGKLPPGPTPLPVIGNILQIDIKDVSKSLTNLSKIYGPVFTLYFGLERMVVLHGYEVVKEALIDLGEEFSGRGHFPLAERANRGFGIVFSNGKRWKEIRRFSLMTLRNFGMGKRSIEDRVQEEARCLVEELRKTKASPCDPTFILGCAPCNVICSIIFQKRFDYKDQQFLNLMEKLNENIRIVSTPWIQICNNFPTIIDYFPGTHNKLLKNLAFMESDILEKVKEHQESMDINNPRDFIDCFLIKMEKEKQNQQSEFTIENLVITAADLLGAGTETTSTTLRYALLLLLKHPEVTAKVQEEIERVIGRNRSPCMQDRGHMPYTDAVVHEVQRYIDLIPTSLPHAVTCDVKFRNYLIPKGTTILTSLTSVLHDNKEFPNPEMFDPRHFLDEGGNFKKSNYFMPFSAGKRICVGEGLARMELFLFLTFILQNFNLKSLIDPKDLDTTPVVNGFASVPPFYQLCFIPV

Cytochrome P450 3A4 = Cytochrome P450 3A4 (Homo sapiens, UniProt P08684);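 further: CYP3A4 tested as one member of a cytochrome P450 panel screen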
Cytochrome P450 3A4, sequence (P08684 whole entry): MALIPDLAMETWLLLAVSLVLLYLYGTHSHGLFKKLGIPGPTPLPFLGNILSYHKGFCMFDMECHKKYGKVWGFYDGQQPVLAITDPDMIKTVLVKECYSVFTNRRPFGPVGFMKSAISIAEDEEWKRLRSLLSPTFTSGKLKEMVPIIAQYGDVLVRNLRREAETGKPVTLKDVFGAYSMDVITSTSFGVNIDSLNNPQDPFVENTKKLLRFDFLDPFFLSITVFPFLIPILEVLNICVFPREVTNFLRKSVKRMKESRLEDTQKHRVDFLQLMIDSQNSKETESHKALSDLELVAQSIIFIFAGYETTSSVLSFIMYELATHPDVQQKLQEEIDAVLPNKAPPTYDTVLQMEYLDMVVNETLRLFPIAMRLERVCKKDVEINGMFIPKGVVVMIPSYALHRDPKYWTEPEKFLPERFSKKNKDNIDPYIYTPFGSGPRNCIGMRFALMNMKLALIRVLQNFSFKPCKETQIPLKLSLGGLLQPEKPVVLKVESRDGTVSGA

Cytochrome P450 1A2 = molecular target: T4, Cytochrome P450 1A2 (Homo sapiens, UniProt P05177);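 further: PubChem cytochrome P450 panel assay, CYP1A2 panel member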
T4 sequence (P05177 whole entry): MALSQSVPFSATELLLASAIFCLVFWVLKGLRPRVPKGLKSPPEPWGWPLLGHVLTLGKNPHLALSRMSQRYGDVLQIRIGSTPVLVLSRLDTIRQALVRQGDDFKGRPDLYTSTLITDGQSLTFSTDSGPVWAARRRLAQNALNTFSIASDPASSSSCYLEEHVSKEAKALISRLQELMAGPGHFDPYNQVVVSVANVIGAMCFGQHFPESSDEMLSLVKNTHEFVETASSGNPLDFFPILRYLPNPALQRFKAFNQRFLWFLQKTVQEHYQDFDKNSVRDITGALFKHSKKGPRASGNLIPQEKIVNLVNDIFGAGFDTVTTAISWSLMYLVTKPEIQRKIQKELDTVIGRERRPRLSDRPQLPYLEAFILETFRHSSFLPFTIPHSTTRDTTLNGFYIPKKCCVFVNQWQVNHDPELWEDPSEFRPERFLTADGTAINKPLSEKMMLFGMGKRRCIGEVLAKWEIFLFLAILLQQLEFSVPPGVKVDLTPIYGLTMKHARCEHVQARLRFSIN

CCCCCCn1c(C)nc2c(c1=O)c1nc3ccccc3nc1n2/N=C/c1ccco1
IC50 (H9c2): 23.3 µM (active)

O=C(COc1ccc2ccccc2c1)N1CCN(Cc2ccncc2)CC1
IC50 [1]: 62.2 µM (active)

Cc1ccc(-c2nnc(O)c3ccccc23)cc1S(=O)(=O)NCCN1CCOCC1
IC50 (H9c2): 14.2 µM (active)

O=C(c1cccs1)N1CCN(Cc2ccncc2)CC1
IC50 [1]: 88.5 µM (active)

O=C1COc2ccc(-c3nnc(O)c4ccccc34)cc2N1
IC50 (H9c2): 5.26 µM (active)

CN(CC(=O)NCc1ccccc1)Cc1cccc(F)c1
IC50 [1]: 67 µM (active)

COc1ccc([C@@]23Oc4cc(OC)cc(OC)c4[C@]2(O)[C@H](O)[C@H](C(=O)N(C)C)[C@H]3c2ccccc2)cc1 [ROCAGLAMIDE]
AC50 [2]: 0.889 µM (active) | AC50 [3]: < 0.26 µM (active)

CN(CC(=O)Nc1ccccc1Br)C(=O)CCc1nc(O)c2ccccc2n1
IC50 (H9c2): 12.7 µM (active)

N#Cc1ccc(-c2ccc(Cl)cc2)nc1SCC(=O)c1cccc(Cl)c1
AC50 (INS1): 3.9 µM (active) | EC50 (H4): > 120 µM (not active) | EC50 [4]: > 120 µM (not active) | EC50 [5]: > 120 µM (not active)

C[C@@H]1CCCCO[C@@H](CN(C)Cc2ccc(C(F)(F)F)cc2)[C@H](C)CN([C@H](C)CO)C(=O)c2cc(NC(=O)Cc3ccccc3)ccc2O1
AC50 (Paired box protein Pax-8): 4.62 µM (active)

CN1C/C(=C\c2ccc(N3CCOCC3)cc2)C(=O)/C(=C/c2ccc(N3CCOCC3)cc2)C1
CC50 [6]: 22.8 µM (active) | EC50 (H4): > 120 µM (not active) | EC50 [4]: 23.7 µM (active) | EC50 [5]: 48.1 µM (active)

CC(C)c1cc(C(N)=O)c(NC(=O)c2cccc(COc3ccc(Br)cc3)c2)s1
EC50 (H4): 0.366 µM (active) | EC50 [7]: > 30 µM (not active) | EC50 [4]: 11.3 µM (active) | EC50 [8]: > 300 µM (not active) | EC50 [5]: 41.9 µM (active) | EC50 [9]: 1.87 µM (active) | EC50 [10]: > 300 µM (not active)

COc1ccc(CCNC(=O)c2cc3c(C)nccc3nc2O)cc1OC
IC50 (H9c2): > 79 µM (inactive)

Cc1nc2c(c(=O)n1CCC1=CCCCC1)c1nc3ccccc3nc1n2/N=C/c1ccccc1
IC50 (H9c2): > 79 µM (inactive)

COc1cccc(-c2cnc3c(NC=O)cc(-c4cccc(NC(C)=O)c4)cn23)c1
IC50 (H9c2): > 79 µM (inactive)

COc1ccc(OCC(=O)N/N=C/c2cccc3cccnc23)cc1
IC50 (H9c2): > 79 µM (inactive)

COc1cc(C)cc2oc(=O)c(CC(=O)N3CCN(C(=O)C4COc5ccccc5O4)CC3)c(C)c12 (centres undefined)
IC50 (H9c2): > 79 µM (inactive)

COc1ccc(-c2cc(C(=O)N3CCN(c4ccccc4)CC3)c3ccccc3n2)cc1OC
IC50 (H9c2): 63.6 µM (inactive)

C[C@@H]1CN([C@@H](C)CO)C(=O)c2cc(NC(=O)Nc3ccc(C(F)(F)F)cc3)ccc2O[C@@H](C)CCCCO[C@H]1CN(C)Cc1ccc(Cl)c(Cl)c1
AC50 (Paired box protein Pax-8): 9.66 µM (active)

C/C(=N\n1nnnc1Nc1ccccc1)c1ccc(N)cc1
AC50 (Cytochrome P450 2C19): 3.55 µM (inconclusive) | EC50 (H4): > 120 µM (not active) | AC50 (Cytochrome P450 3A4): 22.4 µM (inconclusive) | EC50 [4]: > 120 µM (not active) | EC50 [5]: > 120 µM (not active) | AC50 (Cytochrome P450 1A2): 12.6 µM (inconclusive)

COc1cccc(C(=O)Nc2nnc(-c3ccc(Cl)cc3)o2)c1
IC50 (H9c2): > 79 µM (inactive)

O=C(N/N=C/c1cn(-c2ccccc2)nc1-c1cccs1)c1ccccc1F
CC50 [6]: 25.6 µM (active) | IC50 (H9c2): > 79 µM (inactive)

Cc1ccc(S(=O)(=O)c2nc(S(=O)(=O)c3ccccc3)sc2N2CCN(C)CC2)cc1
AC50 (Paired box protein Pax-8): 7.56 µM (active)

COc1cccc(C2c3c(oc4ccccc4c3=O)C(=O)N2Cc2ccco2)c1 (centres undefined)
EC50 (H4): 68 µM (active) | EC50 [4]: 1.7 µM (active) | EC50 [8]: 36.3 µM (active) | EC50 [5]: 55.4 µM (active) | EC50 [10]: 150 µM (active)

COc1cc2nc(O)n3nc(-c4ccccc4)nc3c2cc1OC
IC50 (H9c2): > 79 µM (inactive)

Cn1c(C(=O)Nc2ccc3c(c2)OCCO3)cc2c(=O)n(C)c3ccccc3c21
IC50 (H9c2): > 79 µM (inactive)

COc1ccc(C(=O)CCS(=O)(=O)c2ccc(C)cc2)cc1OC
AC50 (Paired box protein Pax-8): 9.82 µM (active)

COc1cc2c(C#CCCCO)c(-c3ccsc3)oc(=O)c2cc1OC
IC50 (H9c2): > 79 µM (inactive)

COc1cc2ncnc(N[C@H](C)c3ccccc3)c2cc1OC
AC50 [2]: 22.7 µM (active) | AC50 [3]: 8.72 µM (active)

CCOC(=O)COc1cc(OCC(=O)OCC)c2c3c(c(=O)oc2c1)CCCC3
IC50 (H9c2): 10.5 µM (active)

CCN(CC(=O)Nc1ccc(OC)cc1)C(=O)CCc1nc(O)c2ccccc2n1
IC50 (H9c2): > 79 µM (inactive)

O=C(CCc1nc(O)c2ccccc2n1)NNC(=O)c1ccc(Cl)cc1
IC50 (H9c2): > 79 µM (inactive)

Cc1cc(NC(=O)COC(=O)COc2ccc3c4c(c(=O)oc3c2)CCC4)no1
IC50 (H9c2): 13.1 µM (active)

CC(=O)N1c2ccc(S(=O)(=O)N3CCC(C(=O)N4CCN(c5cc(Cl)ccc5C)CC4)CC3)cc2CC1C (centres undefined)
AC50 [2]: 6.67 µM (active) | AC50 [3]: 3.1 µM (active)
